{"source": "patent US20190054109A1", "about": "“An antiviral composition and a method for application thereof” (ALLA CHEM, LLC, priority 2017, published 2019)", "key": {"[1]": {"test": "Cytotoxicity in Huh7 cells (ATPLite kit)", "format": "cell-based", "conditions": "human", "procedure": "The cytotoxicity of tested compositions comprising the prodrug was evaluated concurrently in the same cell line Huh7 using an ATPLite kit (Perkin-Elmer, Boston, USA) in accordance with the manufacturer's instruction. The cell suspension in complete culture medium (DMEM 1×, Cellgro; cat. #10-013-CV) was transferred into 96-well plates with black walls and transparent bottoms (50 μl/well) with a final density of 7500 cells per well. Eighteen hours after planting the cells, serial compound dilutions (50 μl/well) were added. The plate with cells was incubated for 4 days at 37° C. in a humidified 5% CO2 atmosphere. The cells were then twice washed with PBS (200 μl/well) and lysed by adding a lytic buffer (50 μl/well); all reagents were taken from the ATPLite kit. Following a 5-minute stirring on a shaker, a substrate was added (50 μl/well). After an additional 5-minute incubation, the plate was kept for 10 minutes in the dark, and luminescence in the wells was measured using the multifunctional reader Victor^3 V 1420 (Perkin Elmer). The values of CC50 for tested compounds were measured from a cytotoxicity curve plotted using the GraphPad Prizm software."}, "in vitro": {"test": "in vitro", "conditions": "human, plasma", "procedure": "(§1) Evaluation of stability in biological matrix for compositions comprising the prodrug of formula 1.1. Initial compositions comprising the prodrug of formula 1.1 (the tested compounds) were prepared with a concentration of 10 mM in DMSO. From said compositions, 100-fold working solutions were prepared with a concentration of 100 μM in a mixture of acetonitrile: water with a volumetric ratio of 1:1.\nThe incubation was performed in a Vortemp56 shaking incubator at 37° C. with stirring at a rate of 300 rev/min. […] The samples were then centrifuged, and the supernatant (150 μl) was sampled for analysis […]. The incubation was performed in two replicates, with each sample measured twice.\nSamples were analyzed using an HPLC-MS/MS technique developed for each tested prodrug, wherein the chromatographic system 1290 Infinity II (Agilent Technologies) was combined with the tandem mass spectrometer QTRAP5500 (AB Sciex). […] Scanning in a total ion current mode (MS1) allowed us to identify a molecular ion for each compound, and basic product ions were recorded in MS2 mode. […] In quantitative chromatogram processing, the most intensive MRM transition was used for the analyte and the internal standard. […]"}, "[2]": {"test": "Stability in human liver S9 fraction", "format": "in vitro ADME", "procedure": "Proteins were deposited on ice for 15 min. The samples were then centrifuged for 10 min at 3000 rpm, and the supernatant (150 μl) was sampled for analysis.\nTolbutamide (Fluka) was used as the internal standard."}, "physchem": {"test": "physchem", "conditions": "simulated gi fluid", "procedure": "as §1\nThe tested composition comprising the prodrug of formula 1.1 in a final concentration of 1 μM was incubated in artificial gastric juice (0.2% NaCl in 0.7% v/v HCl) and artificial intestinal juice (0.05M KH2PO4, pH 6.75). The incubation was performed in a Vortemp56 shaking incubator at 37° C. with stirring at a rate of 300 rev/min. […] The samples were then centrifuged, and the supernatant (150 μl) was sampled for analysis […]. The incubation was performed in two replicates, with each sample measured twice.\nSamples were analyzed using an HPLC-MS/MS technique developed for each tested prodrug, wherein the chromatographic system 1290 Infinity II (Agilent Technologies) was combined with the tandem mass spectrometer QTRAP5500 (AB Sciex). When developing conditions for mass-spectrometric detection, the solutions of tested compounds in a mixture of acetonitrile-water (1:1) with a concentration of 100 ng/ml were injected directly into the mass spectrometer using a syringe pump with electrospray ionization carried out in a positive ion mode. Scanning in a total ion current mode (MS1) allowed us to identify a molecular ion for each compound, and basic product ions were recorded in MS2 mode. Then, to attain maximum sensitivity, the MS/MS technique was optimized in MRM mode. In quantitative chromatogram processing, the most intensive MRM transition was used for the analyte and the internal standard. Separation was carried out by means of linear gradient elution chromatography on a YMC Triart C18 column (50×2 mm, 1.9 μm) in a mobile phase consisting of 0.1% formic acid in water and 0.1% formic acid in acetonitrile. Tolbutamide (Fluka) was used as the internal standard.\nHalf-life (T1/2) was found from the kinetics of tested prodrug elimination in an antiviral composition during incubation in a biological matrix. The computations were based on the values of chromatographic peak areas for compounds in test samples normalized to the internal standard signal. From linear dependence of log normalized areas of chromatographic peaks on time, the constant of elimination rate was calculated (k is linear section slope)."}}, "data": [{"smiles": "C[C@H](N[P@](=O)(OC[C@H]1O[C@@H](n2ccc(=O)[nH]c2=O)[C@](C)(F)[C@@H]1O)Oc1ccccc1)C(=O)OC1CCC1", "note": "[Prodrug 1.1, cyclobutyl (S)-2-{(S)-[(2R,3R,4R,5R)-5-(3,4-dihydro-2,4-dioxo-2H-pyrimidin-1-yl)-3-hydroxy-4-methyl-4-fluoro-tetrahydro-furan-2-ylmethoxy]-phenoxy-phosphorylamino}-propanoate]", "values": [{"measurement": "CC90 at 4 days", "setting": "[1]; Huh7, 10% FBS", "value": "> 100", "unit": "µM"}, {"measurement": "CC50 at 4 days", "setting": "[1]; Huh7, ATPLite, 4 days", "value": "> 100", "unit": "µM"}, {"measurement": "half-life at 1 μM", "setting": "in vitro", "value": "> 24", "unit": "h"}, {"measurement": "half-life at 1 μM", "setting": "[2]; pH 7.4, human liver S9 fraction 1 mg/ml protein, 37° C., 1 μM, read-out: T1/2 Human S9 (converted)", "value": 3, "unit": "min"}, {"measurement": "metabolic rate in human liver microsomal S9 fraction relative to Sovaldi (faster)", "setting": "[2]; ratio of T1/2 in human S9", "value": 11, "unit": "times"}, {"measurement": "half-life at 1 μM", "setting": "physchem; T1/2 SGF, artificial gastric juice, 37° C.", "value": "12.7 to 15", "unit": "h"}, {"measurement": "half-life at 1 μM", "setting": "physchem; pH 6.75", "value": "> 24", "unit": "h"}]}]}
